# Assay results published in patent US5670538A, “Use of prodelphinidins for obtaining medicaments intended for the treatment of arthrosis” (Laboratoires Dolisos, priority 1992, dated 1997).
# What was measured:
# [1] = tested on: ferricytochrome C; assay: Control experiments: direct reduction of ferricytochrome C by the product itself; type: biochemical; settings: effect not quantifiable
# Source text: This effect not being quantifiable, no conclusion can consequently be drawn on a possible inhibiting effect of these products on the production of the superoxide anion by the activated PMNs.
# [2] = tested on: human articular chondrocytes; assay: Radioimmunoassay of type II collagen (coll. II) produced in tridimensional culture of human chondrocytes; type: cell-based
# Source text: The model used for testing the proanthocyanidols, namely the tridimensional culture of human chondrocytes allows chondrorepair to be quantified by the production of matrix substances: type II collagen, proteoglycans, and chondroresorption by the reduction in the levels of prostaglandin E2 and of OH° and O°2 type free radicals produced.
# 1. Tridimensional culture of human chondrocytes
# The technique used has been described in detail (Bassleer et al., 1986).
# Briefly, human articular chondrocytes are cultivated in DMEM (Dulbecco's Modification of Eagle's Medium--ICN--Gand, Belgium) with either Ultroser G 1% (GIBCO, Gand, Belgium) or 10% of foetal calf serum (ICN--Gand--Belgium), and 50 μg of ascorbic acid/ml added to it. The cartilage originates from the apparently normal zone of heads of human femur suffering from arthrosis, immediately after an operation carried out to insert a total hip prosthesis; it can also originate from the head of a healthy femur, but which has undergone a traumatism and has had to be replaced. This cartilage is then digested by clostridial collagenase 1 mg/ml (Boehringer-Mannheim, Germany) in a buffer (NaCl 120 mM, CaCl2 1 mM, KCl 5 mM, KH2 PO4 1 mM, NaHCO3 25 mM, glucose 2 mM and Hepes 30 mM, pH 7.4) for 24 hours. After 6 successive washings and centrifugations, the chondrocytes, isolated from their matrix, are cultured in flasks (10^6 cells/2 ml of culture medium) placed on a gyrator (10 rpm). The cultures are kept at 37° C. in an atmosphere of air 95%-CO2 5% (Bassleer et al., 1986). Cultivated under these conditions, after 4 to 5 days the chondrocytes form a tridimensional cluster in each flask. These clusters, which at first have a flocculent appearance, then tend to condense during the culture. After two weeks, their diameter is, in general, from 1 to 2 mm.
# The fresh weight of the clusters increases with the duration of the culture, above all during the few first days.
# 3. Radioimmunoassay of type II collagen (coll. II)
# The method for the radioimmunoassay of coll. II has been described in detail (Henrotin et al., 1990). The coll. II is extracted from human articular cartilage according to the technique described by Herbage et al. (1977). The antiserum against coll. II was obtained from rabbits according to the technique of Vaitukaitis et al. (1971).
# The assay is carried out by sequential saturation. In the first instance, the radioimmunoassay is carried out in a 0.3 ml volume consisting of 0.2 ml of incubation buffer (PBS-50 mM PO4, 300 mM NaCl, 5 g/l BSA (W/V), 6.7 mM sodium azide, pH 7.4) containing the reference coll. II (0.5 to 500 ng) or the sample to be assayed and 0.1 ml of anti-coll. II antiserum from guinea pigs diluted to 1/5000 (24 hours at 4° C.). In the second instance, 0.1 ml of ^125 I-coll. II tracer labelled according to the iodogenic technique (Salacynski et al., 1979 and diluted so as to obtain 20,000 cpm/0.1 ml) is added. After 24 hours at 4° C., the collagen-antibody complexes are separated from the free radioactive coll. II by the double antibody system (Franchimont et al. 1983). Sequential saturation gives a sensitivity of 3 ng/tube. The accuracy of the method is 10%. The coefficients of the intra- and inter assay variation are 10% and 20% respectively.
# The assay is specific to human articular type II collagen.
# No cross reaction is obtained with bovine collagen of type I, III or IV.
# The culture media are stored at -20° C. in the presence of enzymatic inhibitors (Oegema et al., 1975). These media are assayed by the radio immunological method without any treatment beforehand. The chondrocyte clusters are washed and dissociated with ultrasonics according to the method described for the assay of the PGs. After centrifugation (1500 rpm, 10 minutes), the residue is extracted using 500 mM acetic acid under agitation for 24 hours at 4° C. The supernatant of the homogenate and the extract of the residue are mixed together and assayed after equilibration at pH 7.4 using 4M NaOH.
# The recovery of coll. […]
# [3] = Production of OH° hydroxyl radicals (gamma irradiation, KMB substrate, ethylene by gas chromatography); type: biochemical; settings: for % inhibition of the production of hydroxyl radicals: Substrate: KMB, relative to the controls
# Procedure: 8. Production of OH° hydroxyl radicals
# The products are dissolved in 10 ml flasks at the required concentration in phosphate buffer: 6.6.10^-2 M, pH 7.4 in the presence of alpha keto methiolbutyric acid (10^-3 M: KMB). After the flasks have been hermetically sealed, the samples are irradiated with gamma rays provided by a ^137 Cs source.
# The OH° radicals produced by the gamma radiation react with the KMB to produce the ethylene detected by a gas chromatograph. The height of the ethylene peak is proportional to the quantity of free radicals formed in the medium (Weis et al., 1978).
# [4] = Antilipoperoxidizing activity (gamma irradiation, linoleic acid substrate, pentane); type: biochemical; settings: for % inhibition of pentane release from linoleic acid (lipid peroxidation): Substrate: Linoleic acid, relative to the controls
# Procedure: 9. Antilipoperoxidizing activity
# Similar to the preceding anti-radical method but where the KMB is replaced by linoleic acid (C18: 2), the gamma radiation releases pentane which is analyzed. The height of the pentane peak is proportional to the quantity free of radicals formed in the medium.
structure (smiles),measurement,setting,value
"Oc1cc(O)c2c(c1)O[C@H](c1cc(O)c(O)c(O)c1)[C@@H](O)[C@@H]2c1c(O)cc(O)c2c1O[C@H](c1cc(O)c(O)c(O)c1)[C@@H](O)C2 [Substance Ib, GC-(4 alpha→8) GC]",Direct reduction of ferricytochrome C,[1],powerful reducers of ferricytochrome C
same,Average concentrations (m ± SD) of type II collagen in the clusters of chondrocytes at the end of 12 days of culture,"[2]; 1% Ultroser G, 1 μg/ml",98 ± 9 ng per μg of DNA
same,"Cumulative release of coll.II over 12 days, Abs","[2]; 1% Ultroser G, 1 μg/ml",394 ng/μg DNA/12 days
same,Average concentrations (m ± SD) of type II collagen in the clusters of chondrocytes at the end of 12 days of culture,"[2]; 1% Ultroser G, 10 μg/ml",121 ± 10 ng per μg of DNA
same,"Cumulative release of coll.II over 12 days, Abs","[2]; 1% Ultroser G, 10 μg/ml",572 ng/μg DNA/12 days
same,Average concentrations (m ± SD) of type II collagen in the clusters of chondrocytes at the end of 12 days of culture,"[2]; 1% Ultroser G, 100 μg/ml",158 ± 16 ng per μg of DNA
same,"Cumulative release of coll.II over 12 days, Abs","[2]; 1% Ultroser G, 100 μg/ml",728 ng/μg DNA/12 days
same,Coll. II released in the culture medium,"[2]; 1% Ultroser G, culture time 0-4 days, 1 μg/ml",222 ± 26 ng/μg DNA/96 h
same,Coll. II released in the culture medium,"[2]; 1% Ultroser G, culture time 0-4 days, 10 μg/ml",322 ± 33 ng/μg DNA/96 h
same,Coll. II released in the culture medium,"[2]; 1% Ultroser G, culture time 0-4 days, 100 μg/ml",392 ± 46 ng/μg DNA/96 h
same,Coll. II released in the culture medium,"[2]; 1% Ultroser G, culture time 4-8 days, 1 μg/ml",112 ± 19 ng/μg DNA/96 h
same,Coll. II released in the culture medium,"[2]; 1% Ultroser G, culture time 4-8 days, 10 μg/ml",158 ± 14 ng/μg DNA/96 h
same,Coll. II released in the culture medium,"[2]; 1% Ultroser G, culture time 4-8 days, 100 μg/ml",190 ± 22 ng/μg DNA/96 h
same,Coll. II released in the culture medium,"[2]; 1% Ultroser G, culture time 8-12 days, 1 μg/ml",59.9 ± 0.6 ng/μg DNA/96 h
same,Coll. II released in the culture medium,"[2]; 1% Ultroser G, culture time 8-12 days, 10 μg/ml",91.7 ± 6.1 ng/μg DNA/96 h
same,Coll. II released in the culture medium,"[2]; 1% Ultroser G, culture time 8-12 days, 100 μg/ml",137.7 ± 13.4 ng/μg DNA/96 h
same,activity at 1 µg/mL,"[2]; Homo sapiens, Chondrocyte, 288 h, 1% Ultroser G, 1 μg/ml, control = 100, read-out: Cumulative release of coll.II over 12 days, %",107%
same,activity at 10 µg/mL,"[2]; Homo sapiens, Chondrocyte, 288 h, 1% Ultroser G, 10 μg/ml, control = 100, read-out: Cumulative release of coll.II over 12 days, %",155%
same,activity at 100 µg/mL,"[2]; Homo sapiens, Chondrocyte, 288 h, 1% Ultroser G, 100 μg/ml, control = 100, read-out: Cumulative release of coll.II over 12 days, %",197%
same,"Type II collagen in the culture media, effect in words","[2]; foetal calf serum, 10 and 100 μg/ml",increases
same,Coll. II released in the culture medium,"[2]; foetal calf serum, Table 18, 0-4 days, 10 μg/ml",41.4 ± 0.51 ng/μg DNA/96 H
same,Coll. II released in the culture medium,"[2]; foetal calf serum, Table 18, 0-4 days, 100 μg/ml",81.1 ± 20.2 ng/μg DNA/96 H
same,Coll. II released in the culture medium,"[2]; foetal calf serum, Table 18, 4-8 days, 10 μg/ml",33.3 ± 4.61 ng/μg DNA/96 H
same,Coll. II released in the culture medium,"[2]; foetal calf serum, Table 18, 4-8 days, 100 μg/ml",55.0 ± 17.21 ng/μg DNA/96 H
same,Coll. II released in the culture medium,"[2]; foetal calf serum, Table 19, 0-4 days, 10 μg/ml",38.2 ± 2.60 ng/μg DNA/96 H
same,Coll. II released in the culture medium,"[2]; foetal calf serum, Table 19, 0-4 days, 100 μg/ml",56.3 ± 12.41 ng/μg DNA/96 H
same,Coll. II released in the culture medium,"[2]; foetal calf serum, Table 19, 4-8 days, 10 μg/ml",29.6 ± 3.44 ng/μg DNA/96 H
same,Coll. II released in the culture medium,"[2]; foetal calf serum, Table 19, 4-8 days, 100 μg/ml",46.3 ± 2.61 ng/μg DNA/96 H
same,Coll. II in the clusters,"[2]; foetal calf serum, experiment 397, 4-8 days, 10 μg/ml",81.6 ± 16.00 ng/μg DNA
same,Coll. II in the clusters,"[2]; foetal calf serum, experiment 397, 4-8 days, 100 μg/ml",113.2 ± 18.25 ng/μg DNA
same,"Collagen II in the clusters, effect in words","[2]; foetal calf serum, experiment 397, 10 and 100 μg/ml",An increase in collagen II is observed
same,% inhibition of the production of hydroxyl radicals,[3]; 10^-3 M,80%
same,% inhibition of the production of hydroxyl radicals,[3]; 10^-4 M,46%
same,% inhibition of the production of hydroxyl radicals,[3]; 10^-5 M,25%
same,"Production of free radicals from KMB, effect in words",[3]; Table 22,significantly inhibits
same,% inhibition of pentane release from linoleic acid (lipid peroxidation),[4]; 10^-3 M,93%
same,% inhibition of pentane release from linoleic acid (lipid peroxidation),[4]; 10^-4 M,45%
same,% inhibition of pentane release from linoleic acid (lipid peroxidation),[4]; 10^-5 M,0%
same,"Production of free radicals from linoleic acid, effect in words",[4]; Table 23,significantly inhibits
